Laboratory results published in publication PMC11062899, “De novo development of small cyclic peptides that are orally bioavailable” (Nature Chemical Biology, 2023).
Values joined by “and” are separate entries in the source; they are usually repeats but may differ in a detail not shown here. Equal values may be shown once.

Experiments:
[1] = Passive artificial membrane permeability (PAMPA); conditions: for PAMPA permeability: % permeability: acceptor concentration relative to equilibrium; for Papp at 50 μM / Permeability% Average / Permeability% R1 / Permeability% R3: PAMPA; for Permeability% Average: average of R1-R3; for Permeability% R1: replicate R1; for Permeability% R1 / Permeability% R3: TIC of top well sample relative to sample at theoretical equilibrium; for Permeability% R3: replicate R3;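 on PAMPA permeability: % permeability: acceptor concentration relative to equilibrium after 12–18 h at 50 µM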
[2] = Metabolic stability in rat liver microsomes (RLMs); conditions: for half-life at 10 μM / microsomal CLint at 10 μM / microsomal CLint / half-life: rat
rat α-thrombin = molecular target: T1, rat α-thrombin (Rattus norvegicus, UniProt P18292); test: Protease inhibition, Ki for rat α-thrombin (fluorogenic substrate Z-Gly-Gly-Arg-AMC); assay type: biochemical; conditions: replicates R1-R3
T1 construct: rat α-thrombin (Molecular Innovations) were used at final concentrations of 2 nM and 3 nM; purchased Molecular Innovations
How it was run: (§1)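 Inhibition was measured as AMC fluorescence from 50 μM substrate, monitored for 30 min at 25 °C, relative to a peptide-free control. Human and rat enzymes were present at 2 nM and 3 nM final, respectively, in 50 mM Tris-HCl pH 7.4, 150 mM NaCl, 10 mM MgCl2, 1 mM CaCl2. Ki derives from fitted IC50 via Cheng–Prusoff.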

porcine pepsin = molecular target: T2, porcine pepsin (Sus scrofa, UniProt P00791); test: Peptide stability in simulated gastric fluid (SGF); assay type: in vitro ADME
T2 construct: 0.32 g of porcine pepsin (Sigma-Aldrich, P7125) was dissolved under gentle agitation; purchased Sigma-Aldrich P7125
Procedure: (§2) Simulated gastric and intestinal fluids were prepared according to the States Pharmacopeia specifications (Test Solutions, United States Pharmacopeia 35, NF 30, 2012). SGF: 0.2 g of sodium chloride was dissolved in 50 ml of water, and the pH was adjusted to 1.2 by addition of 0.7 ml of 10 M hydrochloric acid. Then, 0.32 g of porcine pepsin (Sigma-Aldrich, P7125) was dissolved under gentle agitation, and the volume was filled up to 100 ml with Milli-Q water. SIF: 0.68 g of monobasic potassium phosphate was dissolved in 25 ml of Milli-Q water, and the pH was adjusted to 6.8 by adding 7.7 ml of a 0.2 M sodium hydroxide solution. Next, 1 g of porcine pancreatin (Sigma-Aldrich, P3292) was added under gentle agitation, and the volume was adjusted to 100 ml with Milli-Q water to afford a fine suspension. To test the stability in simulated gastrointestinal fluids, 396 μl of SGF or SIF was pre-heated at 37 °C for 10 min, and 4 μl of a 1 mM peptide solution in DMSO was added. […] Supernatant was analyzed by LC–MS to measure the peptide concentrations at the different timepoints. Residual peptide was calculated by normalizing the concentrations measured at T1 to T0.

human α-thrombin = human α-thrombin (Homo sapiens, UniProt P00734); test: Protease inhibition, Ki for human α-thrombin (fluorogenic substrate Z-Gly-Gly-Arg-AMC); assay type: biochemical; conditions: replicates R1-R3
How it was run: as §1

porcine pancreatin = test: Peptide stability in simulated intestinal fluid (SIF); assay type: in vitro ADME; conditions: after 8 h vs 0 h (TIC); average of R1-R3
Procedure: as §2

[3] = as above; assay type: in vitro ADME, porcine; conditions: simulated gi fluid; 8 h, 37 °C, pH 6.8; read-out: Proteolytic stability: SIF (8 h) % remaining
Procedure: as §2

[4] = rat liver microsomes, individual replicates R1-R3, incubation volume 400 ul, protein 0.5 mg/ml
[5] = peptide 1.33E+02 uM, slope of proteolytic substrate cleavage over time

T2 sequence (P00791 60-385): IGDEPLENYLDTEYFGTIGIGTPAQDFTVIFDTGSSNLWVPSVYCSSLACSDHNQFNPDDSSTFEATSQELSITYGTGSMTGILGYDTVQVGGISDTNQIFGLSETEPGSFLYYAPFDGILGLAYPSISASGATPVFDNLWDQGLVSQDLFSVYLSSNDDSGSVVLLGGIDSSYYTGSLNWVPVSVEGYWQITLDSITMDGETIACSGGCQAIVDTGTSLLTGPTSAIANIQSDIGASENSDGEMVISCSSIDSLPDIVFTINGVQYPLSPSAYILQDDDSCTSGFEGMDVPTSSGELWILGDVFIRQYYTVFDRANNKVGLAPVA

C[C@]12CC[C@H]3[C@@H](CCC4=CC(=O)CC[C@@]43C)[C@@H]1CC[C@@H]2O [Testosterone, reference compound]
PAMPA permeability: % permeability ([1]; 50 μM, 12–18 h): 88.2 ± 1.1%
TIC value at 0 min ([2]; rat liver microsomes, 0 min incubation, LCMS TIC, individual replicates R1-R3, protein 0.5 mg/ml, Ox (+16)/(+32), deMe (-14)/(-28) = mass adducts (metabolites)): 365657 (2×) and 448878
TIC value at 5 min ([2]; rat liver microsomes, 5 min incubation, LCMS TIC, individual replicates R1-R3, protein 0.5 mg/ml): 76968 and 89225 and 92782
TIC value at 15 min ([2]; rat liver microsomes, 15 min incubation, LCMS TIC, individual replicates R1-R3, protein 0.5 mg/ml): 0
TIC value at 30 min ([2]; rat liver microsomes, 30 min incubation, LCMS TIC, individual replicates R1-R3, protein 0.5 mg/ml): 0
TIC value at 60 min ([2]; rat liver microsomes, 60 min incubation, LCMS TIC, individual replicates R1-R3, protein 0.5 mg/ml): 0
Half Life ([2]; rat liver microsomes, individual replicates R1-R3): 2.29 min and 2.19 min
RLM CL [2, 4]: 606.56 ul/min/mg protein and 632.01 ul/min/mg protein
half-life at 10 μM ([2]; microsomes, pH 7.4, Half Life Mean, rat liver microsomes, mean of R1-R3): 2.23 min
half-life at 10 μM ([2]; microsomes, pH 7.4, Half Life, rat liver microsomes, individual replicates R1-R3): 2.21 min
half-life at 10 μM ([2]; microsomes, pH 7.4, Metabolic stability: Half life T1/2 (min), RLMs, mean and SD, three measurements): 2.2 ± 0.1 min
microsomal CLint at 10 μM ([2]; microsomes, pH 7.4, Metabolic stability: RLM CL (ul/min/mg), RLMs, mean and SD, three measurements): 620 ± 10 µL/min/mg
microsomal CLint at 10 μM ([2]; microsomes, pH 7.4, RLM CL Mean, rat liver microsomes, mean of R1-R3): 622 µL/min/mg
microsomal CLint at 10 μM ([2]; microsomes, pH 7.4, RLM CL, rat liver microsomes, individual replicates R1-R3, incubation volume 400 ul, protein 0.5 mg/ml): 626 µL/min/mg

CC(=O)CC(c1ccccc1)c1c(O)c2ccccc2oc1=O (stereo not drawn) [Warfarin, warfarin, reference compound]
PAMPA permeability: % permeability ([1]; 50 μM, 12–18 h): 50 ± 5%
Papp at 50 μM ([1]; pH 7.4, PAMPA permeability: logPapp, 50 μM, 12–18 h): 4.57 ×10⁻⁶ cm/s
Papp at 50 μM ([1]; pH 7.4, apparent permeability logPapp (PAMPA), 50 μM, pH 7.4, 12–18 h): 5.01 ×10⁻⁶ cm/s
Permeability% Average [1]: 50.0%
Permeability% R1 [1]: 48.28%
Permeability% R3 [1]: 55.67%
CL (ul/min/mg protein) R1 ([2]; RLM CL, replicate R1): 3.761 ul/min/mg protein
RLM CL [2, 4]: 2.64 ul/min/mg protein
microsomal CLint at 10 μM ([2]; rat liver microsomes, pH 7.4): 2 µL/min/mg

O=C1C[C@H]2CCCN2C(=O)[C@H](Cc2ccccn2)NC(=O)[C@@H](NC(=O)c2ccc(Cl)s2)CSCCS(=O)(=O)CCSCCN1 [compound 12]
PAMPA permeability: % permeability ([1]; 50 μM, 12–18 h): 0.35 ± 0.03%
Papp at 50 μM ([1]; pH 7.4): 0.0229 ×10⁻⁶ cm/s
Permeability% Average [1]: 0.35%
Permeability% R1 [1]: 0.32%
Permeability% R3 [1]: 0.38%
microsomal CLint ([2]; microsomes, CL (ul/min/mg protein) R1, RLM CL, replicate R1): 90.2 µL/min/mg
microsomal CLint ([2]; microsomes, CL (ul/min/mg protein) R2, RLM CL, replicate R2): 68.8 µL/min/mg
microsomal CLint ([2]; microsomes, CL (ul/min/mg protein) R3, RLM CL, replicate R3): 72.9 µL/min/mg
half-life ([2]; microsomes, Half Life (min) R1, RLM metabolic stability, replicate R1, 0-60 min): 15.4 min
half-life ([2]; microsomes, Half Life (min) R2, RLM metabolic stability, replicate R2, 0-60 min): 20.1 min
half-life ([2]; microsomes, Half Life (min) R3, RLM metabolic stability, replicate R3, 0-60 min): 19 min
half-life ([2]; microsomes, Metabolic stability: Half life T1/2 (min), RLMs, mean and SD, three measurements): 18.2 ± 2 min
microsomal CLint ([2]; microsomes, Metabolic stability: RLM CL (ul/min/mg), RLMs, mean and SD, three measurements): 77 ± 9 µL/min/mg
microsomal CLint ([2]; microsomes, Metabolic stability: RLM CL Average, summary table, average of R1-R3): 77.3 µL/min/mg
microsomal CLint ([2]; microsomes, Metabolic stability: RLM CL R1, summary table, rounded, replicate R1): 90.2 µL/min/mg
microsomal CLint ([2]; microsomes, Metabolic stability: RLM CL R2, summary table, rounded, replicate R2): 68.8 µL/min/mg
microsomal CLint ([2]; microsomes, Metabolic stability: RLM CL R3, summary table, rounded, replicate R3): 73 µL/min/mg
Rat alpha thrombin inhibition, slope normalized to DMSO (rat α-thrombin; [5]): 4.6 and 7.6 and 2.5
Rat alpha thrombin inhibition, slope normalized to DMSO (rat α-thrombin; peptide 1.67E+01 uM): 7.9 and 9.3 and 7.8
Rat alpha thrombin inhibition, slope normalized to DMSO (rat α-thrombin; peptide 2.08E+00 uM): 26.1 and 28.9 and 26.4
Rat alpha thrombin inhibition, slope normalized to DMSO (rat α-thrombin; peptide 3.33E+01 uM): 4.7 and 8.8 and 5.5
Rat alpha thrombin inhibition, slope normalized to DMSO (rat α-thrombin; peptide 4.17E+00 uM): 21.7 and 23.0 and 20.8
Rat alpha thrombin inhibition, slope normalized to DMSO (rat α-thrombin; peptide 6.67E+01 uM): 5.5 and 8.4 and 4.7
Rat alpha thrombin inhibition, slope normalized to DMSO (rat α-thrombin; peptide 8.33E+00 uM): 11.6 and 14.0 and 11.0
SGF stability, Residual peptide Average (porcine pepsin; after 8 h vs 0 h (TIC), average of R1-R3): 99.15
SGF stability, Residual peptide (porcine pepsin; after 8 h vs 0 h (TIC), single replicates R1-R3): 102.14 and 93.27 and 102.05
remaining at 8 h (porcine pepsin; simulated gi fluid, 8 h, 37 °C, pH 1.2, read-out: Proteolytic stability: SGF (8 h) % remaining): 99 ± 5%
Human alpha thrombin inhibition, slope normalized to DMSO (human α-thrombin; peptide 1.02E-03 uM): 102.9 and 99.8 and 96.6
Human alpha thrombin inhibition, slope normalized to DMSO (human α-thrombin; peptide 1.04E+00 uM): 56.9 and 56.3 and 49.2
Human alpha thrombin inhibition, slope normalized to DMSO (human α-thrombin; peptide 1.27E-04 uM): 90.5 and 95.3 and 95.8
Human alpha thrombin inhibition, slope normalized to DMSO (human α-thrombin; peptide 1.30E-01 uM): 71.9 and 86.4 and 78.8
Human alpha thrombin inhibition, slope normalized to DMSO (human α-thrombin; [5]): 6.4 and 9.7 and 4.3
Human alpha thrombin inhibition, slope normalized to DMSO (human α-thrombin; peptide 1.63E-02 uM): 99.5 and 89.1 and 90.1
Human alpha thrombin inhibition, slope normalized to DMSO (human α-thrombin; peptide 1.67E+01 uM): 16.0 and 14.1 and 9.4
Human alpha thrombin inhibition, slope normalized to DMSO (human α-thrombin; peptide 2.03E-03 uM): 98.8 and 94.5 and 92.3
Human alpha thrombin inhibition, slope normalized to DMSO (human α-thrombin; peptide 2.08E+00 uM): 52.9 and 44.1 and 36.2
Human alpha thrombin inhibition, slope normalized to DMSO (human α-thrombin; peptide 2.54E-04 uM): 106.8 and 94.8 and 97.0
Human alpha thrombin inhibition, slope normalized to DMSO (human α-thrombin; peptide 2.60E-01 uM): 78.1 and 77.3 and 67.5
Human alpha thrombin inhibition, slope normalized to DMSO (human α-thrombin; peptide 3.18E-05 uM): 100.4 and 97.0 and 90.2
Human alpha thrombin inhibition, slope normalized to DMSO (human α-thrombin; peptide 3.26E-02 uM): 100.0 and 89.9 and 87.8
Human alpha thrombin inhibition, slope normalized to DMSO (human α-thrombin; peptide 3.33E+01 uM): 12.7 and 10.3 and 16.0
Human alpha thrombin inhibition, slope normalized to DMSO (human α-thrombin; peptide 4.07E-03 uM): 92.6 and 96.1 and 91.8
Human alpha thrombin inhibition, slope normalized to DMSO (human α-thrombin; peptide 4.17E+00 uM): 39.5 and 36.2 and 29.7
Human alpha thrombin inhibition, slope normalized to DMSO (human α-thrombin; peptide 5.09E-04 uM): 101.4 and 93.9 and 96.1
Human alpha thrombin inhibition, slope normalized to DMSO (human α-thrombin; peptide 5.21E-01 uM): 64.5 and 65.3 and 59.0
Human alpha thrombin inhibition, slope normalized to DMSO (human α-thrombin; peptide 6.36E-05 uM): 103.2 and 97.0 and 93.0
Human alpha thrombin inhibition, slope normalized to DMSO (human α-thrombin; peptide 6.51E-02 uM): 93.3 and 87.6 and 88.6
Human alpha thrombin inhibition, slope normalized to DMSO (human α-thrombin; peptide 6.67E+01 uM): 9.5 and 8.1 and 4.7
Human alpha thrombin inhibition, slope normalized to DMSO (human α-thrombin; peptide 8.14E-03 uM): 100.4 and 99.0 and 91.1
Human alpha thrombin inhibition, slope normalized to DMSO (human α-thrombin; peptide 8.33E+00 uM): 24.1 and 22.7 and 13.9
SIF stability, Residual peptide Average (porcine pancreatin): 95.62
remaining at 8 h [3]: 96 ± 6%
